Legend:
androgen receptor = target: T1, androgen receptor (Homo sapiens, UniProt P10275); test: AR ELISA assay (PathScan AR Sandwich ELISA), VCaP cells; type: cell-based; details: drug treatment 5 hours
T1 construct: endogenous in cells; host or cells: VCaP
T1 sequence (P10275 1-920): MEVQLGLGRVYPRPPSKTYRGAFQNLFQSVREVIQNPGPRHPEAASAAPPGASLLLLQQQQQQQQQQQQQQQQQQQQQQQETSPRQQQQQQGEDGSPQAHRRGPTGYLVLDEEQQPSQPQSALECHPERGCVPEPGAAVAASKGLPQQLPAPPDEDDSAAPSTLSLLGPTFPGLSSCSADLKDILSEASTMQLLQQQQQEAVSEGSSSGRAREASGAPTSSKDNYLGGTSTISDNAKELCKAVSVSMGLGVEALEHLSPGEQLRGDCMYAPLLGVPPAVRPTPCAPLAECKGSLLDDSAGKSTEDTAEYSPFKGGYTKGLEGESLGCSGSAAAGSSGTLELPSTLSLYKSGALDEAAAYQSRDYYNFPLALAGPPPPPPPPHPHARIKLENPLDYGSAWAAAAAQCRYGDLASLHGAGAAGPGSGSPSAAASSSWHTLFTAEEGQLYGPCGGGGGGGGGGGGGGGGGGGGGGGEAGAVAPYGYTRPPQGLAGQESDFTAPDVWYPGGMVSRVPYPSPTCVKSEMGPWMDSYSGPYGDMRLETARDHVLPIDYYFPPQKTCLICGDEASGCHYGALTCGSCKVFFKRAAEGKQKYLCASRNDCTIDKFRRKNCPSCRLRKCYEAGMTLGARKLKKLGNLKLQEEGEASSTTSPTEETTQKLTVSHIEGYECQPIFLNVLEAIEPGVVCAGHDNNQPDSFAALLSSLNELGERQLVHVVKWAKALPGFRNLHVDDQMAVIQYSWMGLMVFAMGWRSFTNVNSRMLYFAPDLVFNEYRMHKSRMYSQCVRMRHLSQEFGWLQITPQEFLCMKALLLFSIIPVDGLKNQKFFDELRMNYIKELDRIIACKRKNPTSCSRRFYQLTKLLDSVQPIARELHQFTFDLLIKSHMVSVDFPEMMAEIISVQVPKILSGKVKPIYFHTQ
Protocol: Compounds were evaluated in this assay in LNCaP and/or VCaP cells utilizing similar protocols. The protocols used with VCaP cells are described below. The androgen receptor ELISA assay was performed using PathScan AR Sandwich ELISA (Cell Signaling Catalog #12850) according to the following assay steps:
VCaP cells were seeded at 40,000 cells/well at a volume of 100 μL/well in VCaP assay medium [Phenol red free RPMI (Gibco Cat #11835-030); 5% Charcoal Stripped (Dextran treated) FBS (Omega Scientific, Cat #FB-04); 1% penstrep (Life Technologies, Gibco Cat #: 10378-016)] in Corning 3904 plates. The cells were incubated for a minimum of 3 days. Cells were dosed with PROTACs diluted in 0.01% DMSO and the drug treatment was allowed for 5 hours.
AR ELISA (Cell Signaling) was performed as follows. 1× Cell Signaling Cell lysis buffer was made (Catalogue #9803; comes with the kit). Media from the treated wells is aspirated, and 100 μL 1× cell lysis buffer/well is added. The cells were placed on a shaker for 10 minutes at 4° C. Twenty microliters of lysate was transferred to 100 μl of Diluent in ELISA plate (0.15 μg/ml-[…]). The lysate-diluent mixture was shaken for 30 minutes at 37° C. Allow mouse AR antibody, anti-mouse antibody, TMB, and STOP solution to come to room temperature. The 1×ELISA buffer included in kit was made and loaded in the reservoir. Media from the plates was discarded, the ELISA plate tapped hard on paper towel, and washed 4×200 μl ELISA wash buffer using a plate washer.
One-hundred (100) […] of mouse AR detection Ab was added; the plates were covered and shaken at 37° C. for 1 hour; media was discarded from the plates, the plates were tapped on a paper towel, washed 4× with 200 μL ELISA wash buffer with a plate washer.
One-hundred (100) […] of anti-mouse—HRP conjugated Ab (comes with the kit) was added; the plates were covered and shaken at 37° C. for 30 minutes; the TMB reagent was allowed to come to room temperature; the media was discard from the plate, the plates were tapped on paper towel, washed 4× with 200 μL of ELISA wash buffer; the plates were tapped the plates on paper towel. One-hundred (100) L of TMB was added and the plates shaken for 2 minutes—while watching for color development. One-hundred (100) L Stop solution was added when light blue color developed. Plates were shaken and read at 450 nm.
Progression of prostate cancer in patients treated with anti-androgen therapy usually involves one of several mechanisms of enhanced Androgen Receptor (AR) signaling, including increased intratumoral androgen synthesis, increased AR expression and AR mutations. PROTACs (PROteolysis TArgeting Chimera), which use bi-functional molecules that simultaneously bind a target of choice and an E3 ligase, cause ubiquitination via induced proximity and degradation of the targeted, pathological protein. As opposed to traditional target inhibition, which is a competitive process, degradation is a progressive process. As such, it is less susceptible to increases in endogenous ligand, target expression, or mutations in the target. Thus, this technology appears to be ideal for addressing the mechanisms of AR resistance in patients with prostate cancer. Data was analyzed and plotted using GraphPad Prism software.

Androgen Receptor (AR) = target: T2, Androgen Receptor (AR) (Homo sapiens, UniProt P10275); test: AR immunofluorescence staining, high content imager, VCaP cells; type: cell-based; details: for DC50: AR degradation by immunofluorescence; for Dmax: maximal AR degradation
T2 construct: endogenous in cells; host or cells: VCaP
T2 sequence (P10275 1-920): T1 sequence (P10275 1-920)
Method in brief: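 VCaP cells treated with compound, fixed in 4% PFA (8% 2× solution added directly for low-adherence lines), permeabilised with 0.1% Triton X-100 and blocked. Stained overnight at 4° C with anti-AR antibody, then FITC anti-rabbit secondary plus phalloidin and DAPI/Hoechst. Read by high-content imaging.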

Structure (SMILES) | DC50 (androgen receptor) | Dmax (androgen receptor) | DC50 (Androgen Receptor (AR)) | Dmax (Androgen Receptor (AR))
Cc1cc(O[C@H]2C(C)(C)[C@H](NC(=O)c3ccc(N4CCC(CN5CCN(c6ccc(C(=O)NC7CCC(=O)NC7=O)cc6)CC5)CC4)nn3)C2(C)C)cc(C)c1C#N (stereo partly drawn) [Compound 2, N-((1R,3R)-3-(4-cyano-3,5-dimethylphenoxy)-2,2,4,4-tetramethylcyclobutyl)-6-(4-((4-(4-((2,6-dioxopiperidin-3-yl)carbamoyl)phenyl)piperazin-1-yl)methyl)piperidin-1-yl)pyridazine-3-carboxamide] | < 1 nM | ≥ 70% | – | –
CC1(C)[C@H](NC(=O)c2ccc(N3CCC(CN4CCN(c5ccc(C(=O)NC6CCC(=O)NC6=O)cc5)CC4)CC3)nn2)C(C)(C)[C@H]1Oc1ccc(C#N)c(Cl)c1 (stereo partly drawn) [Compound 3, N-[3-(3-chloro-4-cyanophenoxy)-2,2,4,4-tetramethylcyclobutyl]-6-[4-[(4-[4-[(2,6-dioxopiperidin-3-yl)carbamoyl]phenyl]piperazin-1-yl)methyl]piperidin-1-yl]pyridazine-3-carboxamide] | < 1 nM | ≥ 70% | – | –
CC1(C)[C@H](NC(=O)c2ccc(N3CCC(CN4CCN(c5cccc(C(=O)NC6CCC(=O)NC6=O)c5)CC4)CC3)cc2)C(C)(C)[C@H]1Oc1ccc(C#N)c(Cl)c1 (stereo partly drawn) [Compound 4, 3-(4-((1-(4-(((1R,3R)-3-(3-chloro-4-cyanophenoxy)-2,2,4,4-tetramethylcyclobutyl)carbamoyl)phenyl)piperidin-4-yl)methyl)piperazin-1-yl)-N-(2,6-dioxopiperidin-3-yl)benzamide] | < 1 nM | < 50% | – | –
Cc1cc(O[C@H]2C(C)(C)[C@H](NC(=O)c3ccc(N4CCC(CN5CCN(c6cncc(C(=O)NC7CCC(=O)NC7=O)c6)CC5)CC4)cc3)C2(C)C)cc(C)c1C#N (stereo partly drawn) [Compound 5, N-(2,6-dioxopiperidin-3-yl)-5-(4-[[1-(4-[[(1r,3r)-3-(4-cyano-3,5-dimethylphenoxy)-2,2,4,4-tetramethylcyclobutyl]carbamoyl]phenyl)piperidin-4-yl]methyl]piperazin-1-yl)pyridine-3-carboxamide] | < 1 nM | < 50% | – | –
Cc1cc(O[C@H]2C(C)(C)[C@H](NC(=O)c3ccc(N4CCC(CN5CCN(c6ccc(F)c(C(=O)NC7CCC(=O)NC7=O)c6)CC5)CC4)cc3)C2(C)C)cc(C)c1C#N (stereo partly drawn) [Compound 6, 5-(4-((1-(4-(((1R,3R)-3-(4-cyano-3,5-dimethylphenoxy)-2,2,4,4-tetramethylcyclobutyl)carbamoyl)phenyl)piperidin-4-yl)methyl)piperazin-1-yl)-N-(2,6-dioxopiperidin-3-yl)-2-fluorobenzamide] | < 1 nM | 50 to 70% | – | –
CC1(C)[C@H](NC(=O)c2ccc(N3CCC(CN4CCN(c5ccc(C(=O)NC6CCC(=O)NC6=O)cc5)CC4)CC3)cc2)C(C)(C)[C@H]1Oc1ccc(C#N)c(Cl)c1 (stereo partly drawn) [Compound 7, N-((1R,3R)-3-(3-chloro-4-cyanophenoxy)-2,2,4,4-tetramethylcyclobutyl)-4-(4-((4-(4-((2,6-dioxopiperidin-3-yl)carbamoyl)phenyl)piperazin-1-yl)methyl)piperidin-1-yl)benzamide] | < 1 nM | ≥ 70% | – | –
CC1(C)[C@H](NC(=O)c2ccc(N3CCC(CN4CCN(c5ccc(F)c(C(=O)NC6CCC(=O)NC6=O)c5)CC4)CC3)cc2)C(C)(C)[C@H]1Oc1ccc(C#N)c(Cl)c1 (stereo partly drawn) [Compound 8, 5-(4-((1-(4-(((1R,3R)-3-(3-chloro-4-cyanophenoxy)-2,2,4,4-tetramethylcyclobutyl)carbamoyl)phenyl)piperidin-4-yl)methyl)piperazin-1-yl)-N-(2,6-dioxopiperidin-3-yl)-2-fluorobenzamide] | < 1 nM | < 50% | – | –
CC(C)N(CC1CCN(c2cnc(C(=O)N[C@H]3C(C)(C)[C@H](Oc4ccc(C#N)c(Cl)c4)C3(C)C)cn2)CC1)[C@H]1C[C@H](Oc2cccc(C(=O)NC3CCC(=O)NC3=O)c2)C1 (stereo partly drawn) [Compound 9, N-((1R,3R)-3-(3-chloro-4-cyanophenoxy)-2,2,4,4-tetramethylcyclobutyl)-5-(4-((((1R,3R)-3-(3-((2,6-dioxopiperidin-3-yl)carbamoyl)phenoxy)cyclobutyl)(isopropyl)amino)methyl)piperidin-1-yl)pyrazine-2-carboxamide] | ≥ 100 nM | < 50% | – | –
Cc1cc(O[C@H]2C(C)(C)[C@H](NC(=O)c3ccc(N4CCC(CN5CCN(c6ccnc(C(=O)NC7CCC(=O)NC7=O)c6)CC5)CC4)cc3)C2(C)C)cc(C)c1C#N (stereo partly drawn) [Compound 10, 4-(4-((1-(4-(((1R,3R)-3-(4-cyano-3,5-dimethylphenoxy)-2,2,4,4-tetramethylcyclobutyl)carbamoyl)phenyl)piperidin-4-yl)methyl)piperazin-1-yl)-N-(2,6-dioxopiperidin-3-yl)picolinamide] | < 1 nM | 50 to 70% | – | –
Cc1cc(O[C@H]2C(C)(C)[C@H](NC(=O)c3ccc(N4CCC(CN5CCOCCCCOc6ccc(C(=O)NC7CCC(=O)NC7=O)cc6O[C@H]6C[C@H]5C6)CC4)cc3)C2(C)C)cc(C)c1C#N (stereo partly drawn) [Compound 74, (1r,18r)-N-(2,6-dioxopiperidin-3-yl)-17-{[1-(4-{[(1r,3r)-3-(4-cyano-3,5-dimethylphenoxy)-2,2,4,4-tetramethylcyclobutyl]carbamoyl}phenyl)piperidin-4-yl]methyl}-2,9,14-trioxa-17-azatricyclo[16.1.1.0^3,8]icosa-3(8),4,6-triene-5-carboxamide] | – | – | < 1 nM | < 50%
Cc1cc(O[C@H]2C(C)(C)[C@H](NC(=O)c3ccc(N4CCO[C@@H](CN5CCN(c6ccc(C(=O)N[C@@H]7CCC(=O)NC7=O)c(F)c6)CC5)C4)cc3)C2(C)C)cc(C)c1C#N [Compound 75, N-[(3R)-2,6-dioxopiperidin-3-yl]-2-fluoro-4-(4-{[(2S)-4-(4-{[(1r,3r)-3-(4-cyano-3,5-dimethylphenoxy)-2,2,4,4-tetramethylcyclobutyl]carbamoyl}phenyl)morpholin-2-yl]methyl}piperazin-1-yl)benzamide] | – | – | 1 to 10 nM | < 50%
COc1cc(O[C@H]2C[C@H](N3CCOC4(CCN(c5ccc(C(=O)N[C@H]6C(C)(C)[C@H](Oc7cc(C)c(C#N)c(C)c7)C6(C)C)cc5)CC4)C3)C2)cc(C(=O)NC2CCC(=O)NC2=O)c1 (stereo partly drawn) [Compound 76, N-(2,6-dioxopiperidin-3-yl)-3-methoxy-5-[(1r,3r)-3-[9-(4-{[(1r,3r)-3-(4-cyano-3,5-dimethylphenoxy)-2,2,4,4-tetramethylcyclobutyl]carbamoyl}phenyl)-1-oxa-4,9-diazaspiro[5.5]undecan-4-yl]cyclobutoxy]benzamide] | – | – | 1 to 10 nM | < 50%

— patent publication US12427144B2, “Compounds and methods for the targeted degradation of androgen receptor” (Arvinas Operations, Inc., priority 2019, dated 2025)
